By IC50 is commonly meant the concentration at which inhibition is half-maximal.

Data set [1] deals with BT-474. In words: Anticancer activity against human BT474 cells assessed as inhibition of cell growth after 72 hrs by MTT or MTS assay. It counts as functional, cell-based. Conditions: BT-474, 72 h.
Data set [2] deals with Jurkat E6.1. In words: Anticancer activity against human Jurkat E6-1 cells assessed as inhibition of cell growth after 72 hrs by MTT or MTS assay. It is filed as functional, cell-based. Particulars: Jurkat E6.1, 72 h. For orientation: Tetrazolium dyes change colour on reduction, which living cells bring about.
In data set [3] the test system is CCRF-CEM. In words: Anticancer activity against human CCRF-CEM cells assessed as inhibition of cell growth after 72 hrs by MTT or MTS assay. It counts as functional, cell-based.
In data set [4] the test system is MDA-MB-231. Kind of data set: Anticancer activity against human MDA-MB-231 cells assessed as inhibition of cell growth after 72 hrs by MTT or MTS assay. It counts as functional, cell-based. Conditions: MDA-MB-231, 72 h.
The subject of data set [5] is A549. Kind of data set: Anticancer activity against human A549 cells assessed as inhibition of cell growth after 72 hrs by MTT or MTS assay. Conditions: A549, 72 h. It counts as functional, cell-based.
A short description of data set [6]: Prodrug conversion assessed as Escherichia coli GST catalyzed NO release at 1 uM measured after 5 hrs in presence of GSH by DAF-FM DA reagent based fluorescence spectrophotometric analysis. It counts as ADME.

`O=[N+]([O-])c1ccc(O/N=[N+](\[O-])N2CCN(CCN3CCN(/[N+]([O-])=N/Oc4ccc([N+](=O)[O-])cc4[N+](=O)[O-])CC3)CC2)c([N+](=O)[O-])c1`: the IC50 is 10.7 µM in data set [1]; 3.71 µM in data set [2]; 2.64 µM in data set [3]; 17.6 µM in data set [4]; 17.1 µM in data set [5]. In addition, the “fold change (FC)” value in data set [6] came out at 2.
